Assay results from patent US6300311A, “Regulation of vertebrate ovarian maturation and function using growth factors” (Texas Tech University, priority 1998, dated 2001).
Several values for one entry are separate records, joined by “and”; a condition that tells them apart may be missing. Equal values may be shown once. Entries after “also recorded” stand apart in the source; their conditions may differ.

How the values were obtained:
R55 mRNA = assay: Rabbit ovary explant culture treated with EGF, R55 mRNA by Northern blot; type: cell-based; settings: EGF 50 ng/ml
Description: A method to culture pieces of ovaries from 14 d.pp. rabbits was developed, modeled after techniques used for ovaries from neonatal mice and bovine embryos. Tissue pieces (1-2 mm^3) from 14 d.pp. rabbit ovaries containing only primordial follicles were placed in cell culture inserts with 3.0 mm pores and cultured in 24-well plates with 300 microliters medium (50-50 blend of (a) F-12 Nutrient Mixture (Ham)(1×), liquid contains L-glutamine, and (b) Medium 199 (1×), liquid contains Earle's modified salts, 1.250 mg/L sodium bicarbonate, and L-glutamine.
Cultures were treated with mouse EGF (50 ng/ml) and analyzed for the level of expression of R55 mRNA. Treatment with EGF produced a 3-fold increase in amount of R55 mRNA (normalized to 28 S) as compared to controls incubated in medium alone (FIG. 3).
Ovaries were collected from 2 week old rabbits and the tissue mince into small pieces (-1 mm^3). These ovarian explants were then cultured for 6 days in the presence or absence of EGF (50 ng/ml). Total RNA was isolated and the relative amount of R55mRNA measured by Northern blot analysis. The result of 3 experiments were averaged and graphed. The level of P55 expression in the controls was defined as one. The level of expression of the epidermal growth factor treated samples was approximately 3 fold of that seen in the controls. […] This effect is due to an increase in the number of follicles being activated.

pig ZP proteins = assay: Pig ovarian explant culture with EGF, ZP proteins by protein dot blot; type: cell-based; settings: EGF 50 ng/ml, 6 days
Method: For this first experiment ovaries were collected form pigs at three to five weeks of age at which the pig ovaries are very immature. The ovaries were then minced into small pieces and grown in ovarian explant cultures with or without EGF (similar to what we have done with the rabbit ovaries). After 6 days of culture the tissue was collected and in this case proteins from these samples were isolated and solubilized. The amount of total zona pellucida protein in these samples was determined using an antibody we developed in guinea pigs against total zona pellucida proteins. The amount of porcine zona pellucida proteins in these samples were determined by dot blot analysis and quantified by optical density. The relative amount of zona pellucida protein is graphed for each sample (control and EGF treated 50 ng/ml). This was done for 3 replicates.

[1] = test system: pig ZP proteins in isolated primordial follicles; assay: Isolated pig primordial follicles cultured with EGF, ZP proteins by protein dot blot; type: cell-based; settings: EGF 50 ng/ml, 6 days
Method: FIG. 16 graphically presents the results of studying the effect of EGP on ZP expression in isolated primordial follicles. As in the previous experiment, ovaries were collected from immature pigs at 3 to 5 weeks of age. In this case the ovaries were minced and the follicles enzymatically separated from the connective tissues and isolated. The population of small primordial follicles were collected and grown in cell culture well inserts. These were cultured for six days in medium alone as control or in medium supplemented with 50 nanograms per ml of EGF. After 6 days of culture the follicles were collected and proteins isolated and solubilized. The amount of total zona pellucida protein in these samples was determined using an antibody developed in guinea pigs against total zona pellucida proteins. The amount of porcine zona pellucida proteins in these samples were determined by dot blot analysis and quantified by optical density. The relative amount of zona pellucida protein is graphed in FIG. 16 for each sample (control and EGF treated 50 ng/ml). This was done for 3 replicates. […] This is consistent with the hypothesis that EGF can stimulate activation of dormant primordial follicles as indicated by the expression of zona pellucida genes.

[2] = test system: granulosa cells from primary pig follicles; assay: DNA synthesis in granulosa cells from primary pig follicles; type: cell-based; settings: EGF 50 ng/ml
FSH receptors = assay: Expression of FSH receptors in granulosa cells from antral pig follicles; type: cell-based; settings: EGF 50 ng/ml
mini-pigs = settings: minipig, in vivo; cited from earlier work
neonatal mouse ovaries = neonatal mouse ovaries cultured in vitro; cited from earlier work
mature rats = settings: intravenously infused for a four-week period; cited from earlier work
young female pigs [3] = assay: In vivo rec-pEGF by subcutaneous osmotic pumps, Group 2 pigs, body and organ weights at necropsy
[4] = test system: antiserum to recombinant porcine EGF; settings: radioimmunoassay with antiserum to recombinant porcine EGF; cited from earlier work
young female pigs [5] = assay: In vivo rec-pEGF by subcutaneous osmotic pumps, Group 1 pigs, histological evaluation of ovarian follicles; set-up: species or system pig
Method: Finally, FIG. 23 is a graph which confirms that in vivo administration of rec-pEGF to the Group 1 pigs, above, starting at 30 d.pp. and administered for fourteen consecutive days at a 540 μg/day dose by placement of subcutaneous osmotic pumps in each pig. Ovaries from a sub-set of Group 1 pigs were examined at 70 d.pp. when the first cohort of growing follicles is normally expected to be present. […] Data was obtained by counting the number of hematoxylin/eosin stained follicles in a counting frame (960×1400 μm), and only sections through the center of a follicle with the germinal vesicle present were used for the evaluation. Growing follicles were identified based upon the presence of at least one cuboidal layer of granulosa cells surrounding the oocyte.

[6] = test system: Swiss 3T3 fibroblast cells; assay: 3T3 fibroblast proliferation assay ([H3]-thymidine incorporation); type: cell-based; settings: quiescent Swiss 3T3 cells
Method: In FIG. 21, the bioactivity of EGF was tested in a 3T3 fibroblast proliferation assay. EGF was added to quiescent Swiss 3T3 fibroblast cells and stimulation of fibroblast proliferation was measured by [H^3 ]-thymidine incorporation as an indicator of DNA synthesis.

young female pigs [7] = settings: pig, in vivo
[8] = average of ten largest follicles, 540 μg/day for fourteen days

Q: With “EGF: 53-residue polypeptide that is mitogenic for a variety of cell types both in vivo and in vitro” as the substance, how does the “ratio of R55 to 28S optical densities from Northern blots” value (R55 mRNA; 6 days, ovarian explants of 2 week old rabbits, control = 1, single experiments) read?
A: 2.87 and 3.09 and 3.28

Q: What about the “ratio of R55 to 28S optical densities from Northern blots, average” value (R55 mRNA; 6 days, average of 3 experiments, control = 1) of the same substance?
A: 3.08

Q: And the “expression of R55 in primordial rabbit ovarian follicles (in words)” value (R55 mRNA; Northern blot)?
A: increased expression of R55; also recorded: significant increases in expression of R55

Q: And the “Optical density of ZP proteins from ovarian explant cultures” value (pig ZP proteins; ovaries of pigs 3 to 5 weeks of age, single replicates)?
A: 6355 and 6086 and 7193

Q: And the “increase in the amount of zona pellucida protein in EGF treated ovarian explants” value (pig ZP proteins; versus control)?
A: approximately a two fold increase

Q: What about the “Optical density of ZP proteins from ovarian explant cultures, Avg. ZP” value (pig ZP proteins; average of 3 replicates) of the same substance?
A: 6545

Q: And the “Optical density of ZP proteins from cultured primordial follicles” value ([1]; follicles of pigs 3 to 5 weeks of age, single replicates)?
A: 1815 and 371 and 1697

Q: What about the “expression of zona pellucida proteins in primordial follicles (in words)” value ([1]; versus medium alone) of the same substance?
A: significant increase

Q: What about the “Optical density of ZP proteins from cultured primordial follicles, Avg. ZP” value ([1]; average of 3 replicates) of the same substance?
A: 1294

Q: And the “DNA synthesis in granulosa cells from primary pig follicles” value [2]?
A: stimulates

Q: And the “expression of FSH receptors in granulosa cells from antral pig follicles” value (FSH receptors)?
A: stimulates

Q: What about the “organ growth in mini-pigs” value (mini-pigs) of the same substance?
A: stimulate growth of heart, liver, and urinary tract

Q: And the “number of eggs recovered for in vitro maturation and fertilization” value (neonatal mouse ovaries)?
A: increased the number of eggs recovered

Q: What about the “number of corpora lutea (CL)” value (mature rats) of the same substance?
A: increase in the number of corpora lutea

Q: What about the ovarian weights (mature rats) of the same substance?
A: ovarian weights were increased

Q: And the “Avg. Daily Gain” value (young female pigs [3]; Group 2, N = 3)?
A: 0.32 ± 0.06 kg/day

Q: What about the “Day 14 Weight” value (young female pigs [3]; Group 2, N = 3) of the same substance?
A: 4.6 ± 0.24 kg

Q: And the “Day 70 Weight” value (young female pigs [3]; Group 2, N = 3)?
A: 22.7 ± 3.40 kg

Q: What does the source list for “mouse EGF: EGF originally purified from the male mouse submaxillary gland; used in the rabbit ovary cultures (NSYPGCPSSYDGYCLNGGVCMHIESLDSYTCNCVIGYSGDRCQTRDLRWWELR; Epidermal growth factor; UniProt P01132 977-1029, looked up)”?
A: increase in amount of R55 mRNA as compared to controls (R55 mRNA; normalized to 28S, controls in medium alone): 3 fold; cross-reactivity [4]: < 1%

Q: Which “greater population of growing follicles than in control or non-treated groups” value (young female pigs [5]; 540 μg/day for fourteen days from 30 d.pp., necropsy fourteen days post-treatment) does the source give for “rec-pEGF: recombinant porcine EGF expressed in a bacterial system, with 6X histidine tag and 19 vector amino acids” here?
A: 70%

Q: What about the “size of ovarian follicles (in words)” value (young female pigs [5]; 540 μg/day for fourteen days from 30 d.pp., versus control or non-treated groups) of the same substance?
A: larger ovarian follicles

Q: What about the “number of ovarian follicles at 70 d.pp. (in words)” value (young female pigs [5]; 540 μg/day for fourteen days from 30 d.pp., versus control group and group administered nothing) of the same substance?
A: significantly increased

Q: And the “follicle diameter greater than that of the control group” value (young female pigs [5]; [8])?
A: over 100%

Q: And the “follicle diameter greater than that of the group given nothing” value (young female pigs [5]; [8])?
A: over 70%

Q: And the “Stimulation of fibroblast proliferation” value [6]?
A: comparable to that of purified mouse EGF

Q: What about the “effect on organ weights, body weights and general pathology” value (young female pigs [7]) of the same substance?
A: lack of effect

Q: What about the “increase in size of the ovaries” value (young female pigs [3]; 600 μg/day for fourteen days from 21 d.pp., tissues collected at 10 weeks, versus control and untreated group) of the same substance?
A: ~100%
